Patent US20240343813A1, “COMBINATION THERAPY AND RELATED METHODS” (Bicara Therapeutics Inc., priority 2023, published 2024)

Columns and labels:
[1] = test system: TGFβ-induced hKRAS G12C resistant lung cancer cell line (H1792); assay: CellTiter Glo cytotoxicity in TGFβ-induced hKRAS G12C inhibitor resistant cells; type: cell-based; conditions: long-term TGFβ treated H1792 cells compared to control H1792 cells (wild type); 72 hours
Procedure: Reports have shown that hKRAS G12C inhibitor efficacy is higher in cancer cells with a low epithelial-mesenchymal transition (EMT) signature compared to a high EMT signature. hTGFβ is known to induce EMT through canonical and non-canonical pathways in various cancers.
Briefly, hKRAS G12C inhibitor resistance was induced in H1792 cells by treating the cells with hTGFβ (4 ng/ml) for at least two weeks. […] Cytotoxicity was evaluated using the CellTiter Glo® Luminescent Cell Viability Assay according to manufacturer's instructions (Promega) (as described in Example 6.3).

[2] = test system: H358 lung cancer cells; assay: Long-term hKRAS G12C inhibitor treatment-induced resistance; type: cell-based; conditions: H358 treated with increasing concentrations of AMG510 for about one month; vs control (wild type) H358
Procedure: The effect of long duration treatment with a hKRAS G12C inhibitor on acquired hKRAS G12C inhibitor resistance was assessed utilizing an in vitro lung cancer model (H358). Briefly, H358 lung cancer cells were treated with increasing concentrations of the hKRAS G12C inhibitor AMG510 for about one month and cytotoxicity induced by AMG510 subsequently evaluated.

C=CC(=O)N1CCN(c2nc(=O)n(-c3c(C)ccnc3C(C)C)c3nc(-c4c(O)cccc4F)c(F)cc23)[C@@H](C)C1 [AMG510, 6-fluoro-7-(2-fluoro-6-hydroxyphenyl)-(1M)-1-[4-methyl-2-(propan-2-yl)pyridin-3-yl]-4-[(2S)-2-methyl-4-(prop-2enoyl)piperazin-1-yl]pyrido[2,3-d]pyrimidin-2 (1H)-one]
cytotoxicity in response to AMG510 treatment [1]: less cytotoxicity
acquired KRAS G12C inhibitor resistance (percent viability) [2]: developed KRAS G12C inhibitor (AMG510) resistance
